Assay results from paper PMC7765489, “Structural Characterization of Glycerol Kinase from the Thermophilic Fungus Chaetomium thermophilum” (International Journal of Molecular Sciences, 2020).
Values belong to the molecule of their own block, whether it stands above or below them.

Legend:
CtGK [1] = target: T1, CtGK (Thermochaetoides thermophila, UniProt G0SAG9); assay: thermal shift assay, Sypro Orange; format: binding; settings: 50 mM Tris, 200 mM NaCl, pH 8.0
T1 construct: gene CTHT_0042250; residues 67-590 (models start at residue 65), N-terminal His-tag cut by TEV, codon-optimized gene, E. coli BL21(DE3), dimer
T1 sequence (G0SAG9 67-590): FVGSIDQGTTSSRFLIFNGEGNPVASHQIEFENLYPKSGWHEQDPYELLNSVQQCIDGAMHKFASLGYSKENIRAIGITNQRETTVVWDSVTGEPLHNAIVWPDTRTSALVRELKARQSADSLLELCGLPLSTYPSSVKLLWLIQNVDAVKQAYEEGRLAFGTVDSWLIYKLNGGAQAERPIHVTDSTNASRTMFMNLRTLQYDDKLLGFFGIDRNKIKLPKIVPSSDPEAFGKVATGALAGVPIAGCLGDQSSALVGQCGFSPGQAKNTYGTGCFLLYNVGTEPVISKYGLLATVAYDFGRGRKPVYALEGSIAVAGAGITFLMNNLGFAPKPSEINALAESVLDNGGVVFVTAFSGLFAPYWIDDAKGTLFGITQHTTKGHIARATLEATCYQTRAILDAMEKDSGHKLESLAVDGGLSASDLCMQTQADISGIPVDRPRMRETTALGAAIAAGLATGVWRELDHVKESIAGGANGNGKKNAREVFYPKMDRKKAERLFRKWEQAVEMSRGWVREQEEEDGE

CtGK [2] = target: T1, CtGK; assay: X-ray crystal structure (glycerol soak); format: binding; settings: 20-25% glycerol as cryoprotectant; 0.2 M CaCl2, PEG 3350; active site in N-terminal domain
purified protein = substrate: Nc1ncnc2c1ncn2[C@@H]1O[C@H](COP(=O)(O)OP(=O)(O)OP(=O)(O)O)[C@@H](O)[C@H]1O; assay: purified protein; format: biochemical, Thermochaetoides thermophila; settings: 1 mM glycerol, 5 mM MgCl2, 50 mM KCl, 250 mM sucrose, 20 mM Tris-HCl pH 7.4, 37 °C, substrate inhibition at high ATP
[3] = target: the molecule itself; assay: SEC-MALS; XBridge BEH200 7.8 x 300 column, 50 mM Tris pH 7.8, 200 mM NaCl, 1 mL/min

Tm (CtGK [1]; 5% glycerol, no nucleotide): 53.88 ± 0.48 °C
Molecule: OCC(O)CO [glycerol]
X-ray crystal structure (glycerol soak) (CtGK [2]): we were able to solve the enzyme-substrate complex with a clear electron density

Tm (CtGK [1]; 0.5 mM ATP, no glycerol): 54.5 ± 0.00 °C
Molecule: Nc1ncnc2c1ncn2[C@@H]1O[C@H](COP(=O)(O)OP(=O)(O)OP(=O)(O)O)[C@@H](O)[C@H]1O [ATP]

The remaining lines, values behind:

Molecule: O=P(O)(O)OC[C@H]1OC(O)(COP(=O)(O)O)[C@@H](O)[C@@H]1O (stereo partly shown) [fructose-1,6-bisphosphate]
Tm (CtGK [1]; 0.5 mM FBP, with GOL and ATP, site unidentified): FBP prevents the protein destabilization by GOL and ATP (Figure S1B)

Molecule: Nc1ncnc2c1ncn2[C@@H]1O[C@H](COP(=O)(O)OP(=O)(O)O)[C@@H](O)[C@H]1O [ADP]
Tm (CtGK [1]; 0.5 mM ADP, no glycerol): 55.0 ± 1.11 °C

B1: glycerol kinase from Chaetomium thermophilum (enzyme, UniProt G0SAG9 67-590, looked up)
chain: T1 sequence (G0SAG9 67-590)
notes: glycerol kinase, Chaetomium thermophilum, UniProt G0SAG9, residues 67-590; codon-optimised synthetic gene in pET24d with N-terminal His-Tag and TEV site; The crystal models begin at residue 65 (67 for chain B) although the construct is stated as 67-590; also called CtGK; GK; source: E. coli BL21 (DE3), purified (Ni-Sepharose, TEV cleavage, second Ni-Sepharose, gel filtration on Superdex 75); not …
Km (purified protein): 52 ± 9 µM
stoichiometry N [3]: 2
